Measurements taken from patent US11767310B2, “Nicotinamide RIPK1 inhibitors” (AbbVie Inc., priority 2021, dated 2023).
Read-outs that look alike come from different tables or passages of the source.

Key:
Assay in all cases: Kinase binding screen
Settings in all cases: read-out: Percent Control at 100 nM Compound Concentration
[1] = target: JAK1(JH1domain-catalytic) (Homo sapiens (Human), UniProt P23458)
WNK3 = WNK3 (Homo sapiens (Human), UniProt Q9BYP7)
[2] = target: RSK4(Kin.Dom.1-N-terminal) (Homo sapiens (Human), UniProt Q9UK32)
SYK = SYK (Homo sapiens (Human), UniProt P43405)
GRK3 = GRK3 (Homo sapiens (Human), UniProt P35626)
ACVR2A = ACVR2A (Homo sapiens (Human), UniProt P27037)
WNK4 = WNK4 (Homo sapiens (Human), UniProt Q96J92)
ERN1 = ERN1 (Homo sapiens (Human), UniProt O75460)
[3] = target: ABL1(F317I)-nonphosphorylated (Homo sapiens (Human), UniProt P00519, F317I)
NEK7 = NEK7 (Homo sapiens (Human), UniProt Q8TDX7)
NEK11 = NEK11 (Homo sapiens (Human), UniProt Q8NG66)
MYLK2 = MYLK2 (Homo sapiens (Human), UniProt Q9H1R3)
CAMK1D = CAMK1D (Homo sapiens (Human), UniProt Q8IU85)
RIPK5 = RIPK5 (Homo sapiens (Human), UniProt Q6XUX3)
HIPK3 = HIPK3 (Homo sapiens (Human), UniProt Q9H422)
ERK5 = ERK5 (Homo sapiens (Human), UniProt Q13164)
SRPK3 = SRPK3 (Homo sapiens (Human), UniProt Q9UPE1)
PLK4 = PLK4 (Homo sapiens (Human), UniProt O00444)
CDKL5 = CDKL5 (Homo sapiens (Human), UniProt O76039)
RAF1 = RAF1 (Homo sapiens (Human), UniProt P04049)
CDC2L1 = CDC2L1 (Homo sapiens (Human), UniProt P21127)
LYN = LYN (Homo sapiens (Human), UniProt P07948)
PLK3 = PLK3 (Homo sapiens (Human), UniProt Q9H4B4)
CAMK1 = CAMK1 (Homo sapiens (Human), UniProt Q14012)
TLK1 = TLK1 (Homo sapiens (Human), UniProt Q9UKI8)
CSNK1G2 = CSNK1G2 (Homo sapiens (Human), UniProt P78368)

Sequence of CDKL5 (O76039 whole entry): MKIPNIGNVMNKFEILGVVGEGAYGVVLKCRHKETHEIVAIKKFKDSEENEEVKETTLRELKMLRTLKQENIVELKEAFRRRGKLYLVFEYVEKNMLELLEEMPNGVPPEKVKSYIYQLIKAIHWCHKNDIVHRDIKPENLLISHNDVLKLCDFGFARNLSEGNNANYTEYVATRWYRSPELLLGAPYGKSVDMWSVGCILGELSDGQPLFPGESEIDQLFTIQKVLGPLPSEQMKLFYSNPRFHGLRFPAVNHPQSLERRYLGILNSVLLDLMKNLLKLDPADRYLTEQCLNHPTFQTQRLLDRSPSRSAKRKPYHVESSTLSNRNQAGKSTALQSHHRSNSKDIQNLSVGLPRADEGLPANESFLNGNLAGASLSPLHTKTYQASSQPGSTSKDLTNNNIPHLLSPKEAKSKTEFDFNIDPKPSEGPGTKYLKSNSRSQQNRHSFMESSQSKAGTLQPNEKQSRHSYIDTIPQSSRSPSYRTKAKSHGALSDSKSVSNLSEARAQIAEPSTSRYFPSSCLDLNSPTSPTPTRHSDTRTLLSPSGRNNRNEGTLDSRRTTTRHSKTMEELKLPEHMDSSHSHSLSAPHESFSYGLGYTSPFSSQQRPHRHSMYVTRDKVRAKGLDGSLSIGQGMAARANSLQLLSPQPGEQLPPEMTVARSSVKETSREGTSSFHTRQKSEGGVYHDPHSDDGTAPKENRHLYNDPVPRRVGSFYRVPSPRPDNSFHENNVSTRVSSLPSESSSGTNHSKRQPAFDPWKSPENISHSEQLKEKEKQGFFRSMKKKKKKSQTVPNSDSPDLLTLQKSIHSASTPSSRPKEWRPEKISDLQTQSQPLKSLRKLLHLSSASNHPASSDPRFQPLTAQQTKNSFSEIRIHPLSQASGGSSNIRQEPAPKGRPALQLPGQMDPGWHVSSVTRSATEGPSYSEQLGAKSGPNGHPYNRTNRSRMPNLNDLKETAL
Sequence of PLK4 (O00444 whole entry): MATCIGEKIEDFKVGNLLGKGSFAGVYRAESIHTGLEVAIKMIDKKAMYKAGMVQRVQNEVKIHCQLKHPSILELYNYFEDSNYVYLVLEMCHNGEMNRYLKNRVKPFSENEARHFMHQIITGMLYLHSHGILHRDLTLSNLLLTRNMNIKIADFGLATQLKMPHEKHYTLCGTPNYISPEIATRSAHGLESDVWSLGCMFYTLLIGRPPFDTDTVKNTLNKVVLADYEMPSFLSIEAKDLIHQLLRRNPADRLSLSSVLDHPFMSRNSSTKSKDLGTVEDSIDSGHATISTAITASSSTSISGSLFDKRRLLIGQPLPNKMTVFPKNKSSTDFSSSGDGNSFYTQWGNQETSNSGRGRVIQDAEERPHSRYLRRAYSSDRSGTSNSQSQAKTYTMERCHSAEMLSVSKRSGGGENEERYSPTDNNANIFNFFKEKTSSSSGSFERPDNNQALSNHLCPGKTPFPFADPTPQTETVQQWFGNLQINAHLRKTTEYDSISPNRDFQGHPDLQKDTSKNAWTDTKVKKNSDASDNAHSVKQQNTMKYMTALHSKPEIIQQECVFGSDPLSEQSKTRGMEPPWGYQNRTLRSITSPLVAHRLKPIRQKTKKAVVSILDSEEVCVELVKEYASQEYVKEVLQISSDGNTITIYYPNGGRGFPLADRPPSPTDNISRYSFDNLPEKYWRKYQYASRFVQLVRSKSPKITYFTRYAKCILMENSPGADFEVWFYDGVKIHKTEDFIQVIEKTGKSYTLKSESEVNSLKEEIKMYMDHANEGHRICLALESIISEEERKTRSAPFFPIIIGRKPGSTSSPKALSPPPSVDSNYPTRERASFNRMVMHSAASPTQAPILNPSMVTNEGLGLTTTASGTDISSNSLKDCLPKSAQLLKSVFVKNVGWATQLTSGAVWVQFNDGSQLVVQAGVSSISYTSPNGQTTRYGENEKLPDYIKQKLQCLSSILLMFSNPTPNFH
Sequence of RSK4(Kin.Dom.1-N-terminal) (Q9UK32 73-330): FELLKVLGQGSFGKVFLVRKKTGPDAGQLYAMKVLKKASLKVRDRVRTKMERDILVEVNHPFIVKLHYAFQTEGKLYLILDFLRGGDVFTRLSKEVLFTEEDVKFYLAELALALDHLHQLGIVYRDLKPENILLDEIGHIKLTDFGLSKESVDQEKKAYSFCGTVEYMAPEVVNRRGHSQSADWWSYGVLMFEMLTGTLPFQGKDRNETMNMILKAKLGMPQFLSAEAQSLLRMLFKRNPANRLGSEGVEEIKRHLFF
Sequence of MYLK2 (Q9H1R3 whole entry): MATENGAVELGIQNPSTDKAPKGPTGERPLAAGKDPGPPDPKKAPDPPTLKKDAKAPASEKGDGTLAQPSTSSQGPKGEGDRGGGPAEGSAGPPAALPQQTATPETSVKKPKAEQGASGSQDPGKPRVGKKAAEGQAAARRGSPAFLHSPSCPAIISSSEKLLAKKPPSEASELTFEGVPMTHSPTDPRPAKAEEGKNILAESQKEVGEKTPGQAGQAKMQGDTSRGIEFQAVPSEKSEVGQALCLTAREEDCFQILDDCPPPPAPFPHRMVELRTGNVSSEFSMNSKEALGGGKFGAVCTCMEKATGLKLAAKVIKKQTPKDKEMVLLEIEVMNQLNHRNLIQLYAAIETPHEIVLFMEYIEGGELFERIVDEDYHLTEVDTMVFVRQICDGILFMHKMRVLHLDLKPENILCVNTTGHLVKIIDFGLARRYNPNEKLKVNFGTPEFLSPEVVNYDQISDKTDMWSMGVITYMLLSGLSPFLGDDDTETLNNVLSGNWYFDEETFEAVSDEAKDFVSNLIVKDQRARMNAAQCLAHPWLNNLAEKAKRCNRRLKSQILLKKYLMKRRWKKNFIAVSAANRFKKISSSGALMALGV
Sequence of SRPK3 (Q9UPE1 whole entry): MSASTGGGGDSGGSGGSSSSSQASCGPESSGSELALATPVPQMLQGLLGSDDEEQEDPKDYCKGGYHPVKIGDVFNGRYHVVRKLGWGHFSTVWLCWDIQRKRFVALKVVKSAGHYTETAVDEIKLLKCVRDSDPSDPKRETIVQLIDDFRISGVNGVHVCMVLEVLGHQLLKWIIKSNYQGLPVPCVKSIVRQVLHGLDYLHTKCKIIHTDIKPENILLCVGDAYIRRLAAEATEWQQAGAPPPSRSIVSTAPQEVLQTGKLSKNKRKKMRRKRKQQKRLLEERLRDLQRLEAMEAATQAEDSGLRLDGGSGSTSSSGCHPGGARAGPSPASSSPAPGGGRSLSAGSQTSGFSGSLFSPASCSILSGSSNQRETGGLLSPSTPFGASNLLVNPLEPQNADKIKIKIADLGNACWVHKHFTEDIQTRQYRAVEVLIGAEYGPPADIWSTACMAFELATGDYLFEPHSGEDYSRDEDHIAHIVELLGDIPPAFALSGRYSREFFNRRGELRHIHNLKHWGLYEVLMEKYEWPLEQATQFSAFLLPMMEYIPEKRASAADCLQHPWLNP
Sequence of TLK1 (Q9UKI8 whole entry): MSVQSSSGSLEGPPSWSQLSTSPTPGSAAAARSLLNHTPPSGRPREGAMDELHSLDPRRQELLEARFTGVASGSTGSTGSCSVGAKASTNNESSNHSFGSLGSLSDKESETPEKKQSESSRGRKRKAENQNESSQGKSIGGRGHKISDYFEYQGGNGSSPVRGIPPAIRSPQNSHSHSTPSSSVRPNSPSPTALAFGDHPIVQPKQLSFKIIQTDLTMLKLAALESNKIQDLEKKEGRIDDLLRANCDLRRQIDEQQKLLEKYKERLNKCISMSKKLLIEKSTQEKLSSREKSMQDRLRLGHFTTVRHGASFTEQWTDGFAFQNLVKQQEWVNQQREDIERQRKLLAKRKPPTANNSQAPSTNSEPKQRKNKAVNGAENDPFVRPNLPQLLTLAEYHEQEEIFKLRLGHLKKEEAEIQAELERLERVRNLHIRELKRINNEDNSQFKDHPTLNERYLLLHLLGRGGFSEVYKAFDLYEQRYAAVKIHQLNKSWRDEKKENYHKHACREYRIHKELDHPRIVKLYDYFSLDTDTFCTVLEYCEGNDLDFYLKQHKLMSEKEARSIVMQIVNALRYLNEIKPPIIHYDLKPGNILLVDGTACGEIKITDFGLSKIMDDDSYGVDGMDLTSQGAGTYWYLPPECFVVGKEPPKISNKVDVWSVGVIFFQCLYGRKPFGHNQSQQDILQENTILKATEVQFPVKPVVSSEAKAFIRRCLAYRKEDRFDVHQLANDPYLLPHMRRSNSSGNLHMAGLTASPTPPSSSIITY
Sequence of LYN (P07948 whole entry): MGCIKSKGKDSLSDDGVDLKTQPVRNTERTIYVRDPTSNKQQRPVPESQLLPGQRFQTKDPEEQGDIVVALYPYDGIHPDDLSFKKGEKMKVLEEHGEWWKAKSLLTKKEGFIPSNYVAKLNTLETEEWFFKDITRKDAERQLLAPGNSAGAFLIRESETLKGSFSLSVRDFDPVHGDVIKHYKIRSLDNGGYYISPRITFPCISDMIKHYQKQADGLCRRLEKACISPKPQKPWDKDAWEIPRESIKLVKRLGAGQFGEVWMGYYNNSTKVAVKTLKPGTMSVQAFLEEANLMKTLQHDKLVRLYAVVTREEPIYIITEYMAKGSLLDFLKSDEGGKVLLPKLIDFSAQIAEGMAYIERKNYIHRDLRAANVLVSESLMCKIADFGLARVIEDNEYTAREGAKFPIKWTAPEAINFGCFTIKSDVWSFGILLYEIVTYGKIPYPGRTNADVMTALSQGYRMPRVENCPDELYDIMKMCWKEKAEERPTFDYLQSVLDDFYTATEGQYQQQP
Sequence of CAMK1 (Q14012 whole entry): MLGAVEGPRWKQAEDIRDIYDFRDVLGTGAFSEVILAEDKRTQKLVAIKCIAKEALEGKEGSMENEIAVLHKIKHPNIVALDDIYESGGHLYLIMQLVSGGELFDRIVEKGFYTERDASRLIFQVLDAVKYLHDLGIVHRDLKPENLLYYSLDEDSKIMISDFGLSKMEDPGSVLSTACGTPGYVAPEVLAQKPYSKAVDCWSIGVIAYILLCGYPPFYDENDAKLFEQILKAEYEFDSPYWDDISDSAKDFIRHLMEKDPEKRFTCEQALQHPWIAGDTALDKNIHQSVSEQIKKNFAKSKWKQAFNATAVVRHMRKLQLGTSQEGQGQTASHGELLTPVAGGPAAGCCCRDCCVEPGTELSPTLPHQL

## CN(C[C@@H](O)Cc1ccccc1)C(=O)c1cncc(C#Cc2cnn(C(F)F)c2)c1 [Example 2, (S)-5-((1-(difluoromethyl)-1H-pyrazol-4-yl)ethynyl)-N-(2-hydroxy-3-phenylpropyl)-N-methylnicotinamide]
[1]; JAK1(JH1domain-catalytic)
  remaining activity at 0.1 µM: 100%
WNK3; WNK3
  remaining activity at 0.1 µM: 100%
[2]; RSK4(Kin.Dom.1-N-terminal)
  remaining activity at 0.1 µM: 100%
SYK; SYK
  remaining activity at 0.1 µM: 97%
GRK3; GRK3
  remaining activity at 0.1 µM: 82%
ACVR2A; ACVR2A
  remaining activity at 0.1 µM: 94%
WNK4; WNK4
  remaining activity at 0.1 µM: 84%
ERN1; ERN1
  remaining activity at 0.1 µM: 100%
[3]; ABL1(F317I)-nonphosphorylated
  remaining activity at 0.1 µM: 100%
NEK7; NEK7
  remaining activity at 0.1 µM: 100%
NEK11; NEK11
  remaining activity at 0.1 µM: 100%
MYLK2; MYLK2
  remaining activity at 0.1 µM: 100%
CAMK1D; CAMK1D
  remaining activity at 0.1 µM: 100%
RIPK5; RIPK5
  remaining activity at 0.1 µM: 100%
HIPK3; HIPK3
  remaining activity at 0.1 µM: 100%
ERK5; ERK5
  remaining activity at 0.1 µM: 100%
SRPK3; SRPK3
  remaining activity at 0.1 µM: 90%
PLK4; PLK4
  remaining activity at 0.1 µM: 100%
CDKL5; CDKL5
  remaining activity at 0.1 µM: 93%
RAF1; RAF1
  remaining activity at 0.1 µM: 100%
CDC2L1; CDC2L1
  remaining activity at 0.1 µM: 100%
LYN; LYN
  remaining activity at 0.1 µM: 71%
PLK3; PLK3
  remaining activity at 0.1 µM: 97%
CAMK1; CAMK1
  remaining activity at 0.1 µM: 100%
TLK1; TLK1
  remaining activity at 0.1 µM: 100%
CSNK1G2; CSNK1G2
  remaining activity at 0.1 µM: 100%

## CN(C[C@H](Cc1ccccc1)OP(=O)(O)O)C(=O)c1cncc(C#Cc2cnn(C(F)F)c2)c1 [Example 19, (S)-1-(5-((1-(difluoromethyl)-1H-pyrazol-4-yl)ethynyl)-N-methylnicotinamido)-3-phenylpropan-2-yl dihydrogen phosphate]
[1]
  remaining activity at 0.1 µM: 100%
WNK3
  remaining activity at 0.1 µM: 100%
[2]
  remaining activity at 0.1 µM: 93%
SYK
  remaining activity at 0.1 µM: 93%
GRK3
  remaining activity at 0.1 µM: 81%
ACVR2A
  remaining activity at 0.1 µM: 100%
WNK4
  remaining activity at 0.1 µM: 81%
ERN1
  remaining activity at 0.1 µM: 93%
[3]
  remaining activity at 0.1 µM: 100%
NEK7
  remaining activity at 0.1 µM: 99%
NEK11
  remaining activity at 0.1 µM: 95%
MYLK2
  remaining activity at 0.1 µM: 96%
CAMK1D
  remaining activity at 0.1 µM: 74%
RIPK5
  remaining activity at 0.1 µM: 96%
HIPK3
  remaining activity at 0.1 µM: 88%
ERK5
  remaining activity at 0.1 µM: 100%
SRPK3
  remaining activity at 0.1 µM: 100%
PLK4
  remaining activity at 0.1 µM: 100%
CDKL5
  remaining activity at 0.1 µM: 86%
RAF1
  remaining activity at 0.1 µM: 100%
CDC2L1
  remaining activity at 0.1 µM: 100%
LYN
  remaining activity at 0.1 µM: 80%
PLK3
  remaining activity at 0.1 µM: 92%
CAMK1
  remaining activity at 0.1 µM: 62%
TLK1
  remaining activity at 0.1 µM: 100%
CSNK1G2
  remaining activity at 0.1 µM: 95%
